Laboratory results from the supplement of paper PMC10627819.

How the values were obtained:
S. pneumoniae D39V [1] = assay: fitness (endpoint OD595 vs no drug) (fraction); higher = more growth
How it was run: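 Each well of a 384-well plate received 30 µl of culture at OD595 0.01, or 55 µl for S. pneumoniae. TSB, LB Lennox or CY served as media at 37 °C. OD595 was taken every 30 min for 14 h and corrected by subtracting the first reading. Fitness is the optical density at stationary-phase entry divided by the robust mean of no-drug controls, capped at 1.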

B. subtilis 168 = assay: Bliss interaction score (quartile over a dose matrix) (fitness difference); higher = more antagonism (negative = synergy)
How it was run: (§1)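 Growth in each well was taken as OD595 at entry into stationary phase. Dividing by the plate's robust no-drug mean and capping at 1 gave fitness, and single-drug fitness was inferred from the combination data. The Bliss score, observed minus product-expected fitness, is summarised by quartiles over technical, biological and donor/recipient replicates.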

S. aureus DSM 20231 = assay: as above
How it was run: as §1

S. aureus Newman = assay: as above
How it was run: as §1

S. pneumoniae D39V [2] = assay: as above
How it was run: as §1
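For Bliss interaction score (quartile over a dose matrix) in this document: first quartile when negative (synergy) and third quartile when positive (antagonism).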

CO/N=C(\C(=O)N[C@@H]1C(=O)N2C(C(=O)O)=C(COC(C)=O)CS[C@H]12)c1csc(N)n1 [Cefotaxime] + C[C@@H](O)[C@H]1C(=O)N2C(C(=O)O)=C(SCCNC=N)C[C@H]12 [Imipenem]
fitness, S. pneumoniae D39V [1]
Conditions	partner 0.005 µg/mL	partner 0.0065 µg/mL	partner 0.01 µg/mL	partner 0.013 µg/mL	partner 0.02 µg/mL	partner 0.026 µg/mL
first compound 0.0018 µg/mL	0.966	0.976	0.937	≥ 1	0.932	0.973
first compound 0.0035 µg/mL	0.942	0.99	0.941	≥ 1	0.947	0.942
first compound 0.007 µg/mL	0.934	0.634	0.882	0.708	0.87	0.548

Conditions	Bliss interaction score
B. subtilis 168	-0.116
S. aureus DSM 20231	-0.0289
S. aureus Newman	0.0648
S. pneumoniae D39V [2]	0.0762

O=C(O)c1cn(C2CC2)c2cc(N3CCNCC3)c(F)cc2c1=O [Ciprofloxacin] + CC[C@H]1OC(=O)[C@H](C)[C@@H](O[C@H]2C[C@@](C)(OC)[C@@H](O)[C@H](C)O2)[C@H](C)[C@@H](O[C@@H]2O[C@H](C)C[C@H](N(C)C)[C@H]2O)[C@](C)(OC)C[C@@H](C)C(=O)[C@H](C)[C@@H](O)[C@]1(C)O [Clarithromycin]
fitness, S. pneumoniae D39V [1], one replicate
Conditions	partner 0.007812 µg/mL	partner 0.01562 µg/mL	partner 0.03125 µg/mL	partner 0.0625 µg/mL	partner 0.125 µg/mL	partner 0.25 µg/mL
first compound 0.125 µg/mL	0.839	0.844	0.627	–	–	–
first compound 0.25 µg/mL	0.742	0.746	0.536	0.349	0.17	0.0141
first compound 0.5 µg/mL	0.472	0.524	0.398	–	–	–

fitness, S. pneumoniae D39V [1]
Conditions	partner 0.0625 µg/mL	partner 0.07 µg/mL	partner 0.125 µg/mL	partner 0.14 µg/mL	partner 0.25 µg/mL	partner 0.28 µg/mL
first compound 0.125 µg/mL	0.473	0.151	0.246	0.0833	0.0576	0.0594
first compound 0.25 µg/mL	–	0.166	–	0.0864	–	0.0284
first compound 0.5 µg/mL	0.374	0.127	0.191	0.0639	0.0761	0.0531

Conditions	Bliss interaction score
B. subtilis 168	0.183
S. aureus DSM 20231	0.0952
S. aureus Newman	0.0708
S. pneumoniae D39V [2]	-0.0773

C[C@H]1c2cccc(O)c2C(=O)C2=C(O)[C@]3(O)C(=O)C(C(N)=O)=C(O)[C@@H](N(C)C)[C@@H]3[C@@H](O)[C@@H]21 [Doxycycline] + Cn1nnc(-c2ccc(-c3ccc(N4C[C@H](CO)OC4=O)cc3F)cn2)n1 [Tedizolid]
fitness, S. pneumoniae D39V [1], one replicate
Conditions	first compound 0.003875 µg/mL	first compound 0.00775 µg/mL	first compound 0.031 µg/mL	first compound 0.062 µg/mL
partner 0.125 µg/mL	0.847	0.848	–	–
partner 0.25 µg/mL	0.765	0.759	0.709	0.56
partner 0.5 µg/mL	0.411	0.438	0.301	0.203

fitness, S. pneumoniae D39V [1]
Conditions	partner 0.03125 µg/mL	partner 0.0625 µg/mL	partner 0.125 µg/mL	partner 0.25 µg/mL	partner 0.5 µg/mL
first compound 0.0155 µg/mL	0.91	0.913	0.832	0.801	0.456
first compound 0.031 µg/mL	0.957	0.9	0.768	–	–
first compound 0.062 µg/mL	0.92	0.905	0.826	–	–

Conditions	Bliss interaction score
B. subtilis 168	-0.0653
S. aureus DSM 20231	-0.0283
S. aureus Newman	-0.0152
S. pneumoniae D39V [2]	0.055

O=C(O)c1cn(C2CC2)c2cc(N3CCNCC3)c(F)cc2c1=O [Ciprofloxacin] + C[C@@H](O)[C@H]1C(=O)N2C(C(=O)O)=C(SCCNC=N)C[C@H]12 [Imipenem]
fitness, S. pneumoniae D39V [1]
Conditions	partner 0.005 µg/mL	partner 0.0065 µg/mL	partner 0.01 µg/mL	partner 0.013 µg/mL	partner 0.02 µg/mL	partner 0.026 µg/mL
first compound 0.125 µg/mL	0.956	0.96	0.959	0.893	0.933	0.837
first compound 0.25 µg/mL	–	0.878	–	0.847	–	0.774
first compound 0.5 µg/mL	–	0.531	–	0.583	–	0.529

S. pneumoniae D39V [1], first compound 0.25 µg/mL, one replicate
Conditions	fitness
partner 0.005 µg/mL	0.835
partner 0.01 µg/mL	0.824
partner 0.02 µg/mL	0.881

Conditions	Bliss interaction score
B. subtilis 168	-0.149
S. aureus DSM 20231	0.0301
S. aureus Newman	0.016
S. pneumoniae D39V [2]	0.0446

COc1cccc2c1C(=O)c1c(O)c3c(c(O)c1C2=O)C[C@@](O)(C(=O)CO)C[C@@H]3O[C@H]1C[C@H](N)[C@H](O)[C@H](C)O1 [Doxorubicin] + C[C@@H](O)[C@H]1C(=O)N2C(C(=O)O)=C(SCCNC=N)C[C@H]12 [Imipenem]
fitness, S. pneumoniae D39V [1]
Conditions	partner 0.005 µg/mL	partner 0.0065 µg/mL	partner 0.01 µg/mL	partner 0.013 µg/mL	partner 0.02 µg/mL	partner 0.026 µg/mL
first compound 0.25 µg/mL	0.954	0.913	0.958	0.836	0.949	0.831
first compound 0.5 µg/mL	0.981	0.858	0.958	0.844	0.971	0.842
first compound 1 µg/mL	0.909	0.858	0.877	0.894	0.872	0.789

Conditions	Bliss interaction score
B. subtilis 168	-0.197
S. aureus DSM 20231	-0.0485
S. aureus Newman	-0.0256
S. pneumoniae D39V [2]	0.0651

C[C@@H]1O[C@@H]1P(=O)(O)O [Fosfomycin] + O=C1CN(/N=C/c2ccc([N+](=O)[O-])o2)C(=O)N1 [Nitrofurantoin]
fitness, S. pneumoniae D39V [1]
Conditions	partner 1.285 µg/mL	partner 2 µg/mL	partner 2.57 µg/mL	partner 4 µg/mL	partner 8 µg/mL
first compound 1.25 µg/mL	0.96	0.91	0.966	0.871	–
first compound 2.5 µg/mL	0.936	0.879	0.964	0.887	–
first compound 5 µg/mL	0.851	0.778	0.858	0.77	0.627

S. pneumoniae D39V [1], partner 5.14 µg/mL, one replicate
Conditions	fitness
first compound 1.25 µg/mL	0.923
first compound 2.5 µg/mL	0.898
first compound 5 µg/mL	0.866

Conditions	Bliss interaction score
B. subtilis 168	-0.0694
S. aureus DSM 20231	-0.0181
S. aureus Newman	0.0702
S. pneumoniae D39V [2]	0.122
